Literature values, collected in patent US12611671B2, “Methods, systems and kits for in-pen assays” (Bruker Cellular Analysis, Inc., priority 2016, dated 2026).

Target: IgG
Details: (Fc); read-out: Affinity for IgG

For “DCAWHLGELVWCT [CPD 4, Asp Cys Ala Trp His Leu Gly Glu Leu Val Trp Cys Thr]”, which Kd is on record?
The Kd was 100 nM.
